According to patent publication US12509453B2, “BRM/BRG1 inhibitors and uses thereof” (Foghorn Therapeutics Inc., priority 2019, dated 2025):

What was measured:
BRM = molecular target: T1, BRM (Homo sapiens, UniProt P51531); assay: ATPase catalytic activity assay (ADP-Glo), BRM; type: biochemical; conditions: 30 nM BRM, 400 μM ATP; for IC50: 20 nM salmon sperm DNA, read-out: BRM IP50 (μM)*
T1 construct: made in house; host or cells: High Five insect cells
Description: (§1) The ATPase catalytic activity of BRM or BRG-1 was measured by the in vitro biochemical assay using ADP-Glo™ (Promega, V9102). The ADP-Glo™ kinase assay is performed in two steps once the reaction is complete. The first step is to deplete any unconsumed ATP in the reaction. The second step is to convert the reaction product ADP to ATP, which will be utilized by the luciferase to generate luminesce and be detected by a luminescence reader, such as Envision.
(§2) The assay reaction mixture (10 μL) contains 30 nM of BRM or BRG-1, 20 nM salmon sperm DNA (from Invitrogen, UltraPure™ Salmon Sperm DNA Solution, cat #15632011), and 400 μM of ATP in the ATPase assay buffer, which comprises of 20 mM Tris, pH 8, 20 mM MgCl2, 50 mM NaCl, 0.1% Tween-20, and 1 mM fresh DTT (Pierce™ DTT (Dithiothreitol), cat #20290). The reaction is initiated by the addition of the 2.5 μL ATPase solution to 2.5 μL ATP/DNA solution on low volume white Proxiplate-384 plus plate (PerkinElmer,cat #6008280) and incubates at room temperature for 1 hour. Then following addition of 5 μL of ADP-Glo™ Reagent provided in the kit, the reaction incubates at room temperature for 40 minutes. Then 10 μL of Kinase Detection Reagent provided in the kit is added to convert ADP to ATP, and the reaction incubates at room temperature for 60 minutes. Finally, luminescence measurement is collected with a plate-reading luminometer, such as Envision.
as §1, with “The” for “The ATPase catalytic activity of BRM or BRG-1 was measured by the in vitro biochemical assay using ADP-Glo™ (Promega, V9102). The”
as §2, with “BRG1,” for “BRG-1,”

BRG-1 = molecular target: T2, BRG-1 (Homo sapiens, UniProt P51532); assay: ATPase catalytic activity assay (ADP-Glo), BRG-1; type: biochemical; conditions: 30 nM BRG-1, 400 μM ATP; for IC50: 20 nM salmon sperm DNA, read-out: BRG1 IP50 (μM)*; for Emax: read-out: BRG1 Max % Inhibition
T2 construct: made in house; host or cells: High Five insect cells
T2 sequence (P51532 whole entry): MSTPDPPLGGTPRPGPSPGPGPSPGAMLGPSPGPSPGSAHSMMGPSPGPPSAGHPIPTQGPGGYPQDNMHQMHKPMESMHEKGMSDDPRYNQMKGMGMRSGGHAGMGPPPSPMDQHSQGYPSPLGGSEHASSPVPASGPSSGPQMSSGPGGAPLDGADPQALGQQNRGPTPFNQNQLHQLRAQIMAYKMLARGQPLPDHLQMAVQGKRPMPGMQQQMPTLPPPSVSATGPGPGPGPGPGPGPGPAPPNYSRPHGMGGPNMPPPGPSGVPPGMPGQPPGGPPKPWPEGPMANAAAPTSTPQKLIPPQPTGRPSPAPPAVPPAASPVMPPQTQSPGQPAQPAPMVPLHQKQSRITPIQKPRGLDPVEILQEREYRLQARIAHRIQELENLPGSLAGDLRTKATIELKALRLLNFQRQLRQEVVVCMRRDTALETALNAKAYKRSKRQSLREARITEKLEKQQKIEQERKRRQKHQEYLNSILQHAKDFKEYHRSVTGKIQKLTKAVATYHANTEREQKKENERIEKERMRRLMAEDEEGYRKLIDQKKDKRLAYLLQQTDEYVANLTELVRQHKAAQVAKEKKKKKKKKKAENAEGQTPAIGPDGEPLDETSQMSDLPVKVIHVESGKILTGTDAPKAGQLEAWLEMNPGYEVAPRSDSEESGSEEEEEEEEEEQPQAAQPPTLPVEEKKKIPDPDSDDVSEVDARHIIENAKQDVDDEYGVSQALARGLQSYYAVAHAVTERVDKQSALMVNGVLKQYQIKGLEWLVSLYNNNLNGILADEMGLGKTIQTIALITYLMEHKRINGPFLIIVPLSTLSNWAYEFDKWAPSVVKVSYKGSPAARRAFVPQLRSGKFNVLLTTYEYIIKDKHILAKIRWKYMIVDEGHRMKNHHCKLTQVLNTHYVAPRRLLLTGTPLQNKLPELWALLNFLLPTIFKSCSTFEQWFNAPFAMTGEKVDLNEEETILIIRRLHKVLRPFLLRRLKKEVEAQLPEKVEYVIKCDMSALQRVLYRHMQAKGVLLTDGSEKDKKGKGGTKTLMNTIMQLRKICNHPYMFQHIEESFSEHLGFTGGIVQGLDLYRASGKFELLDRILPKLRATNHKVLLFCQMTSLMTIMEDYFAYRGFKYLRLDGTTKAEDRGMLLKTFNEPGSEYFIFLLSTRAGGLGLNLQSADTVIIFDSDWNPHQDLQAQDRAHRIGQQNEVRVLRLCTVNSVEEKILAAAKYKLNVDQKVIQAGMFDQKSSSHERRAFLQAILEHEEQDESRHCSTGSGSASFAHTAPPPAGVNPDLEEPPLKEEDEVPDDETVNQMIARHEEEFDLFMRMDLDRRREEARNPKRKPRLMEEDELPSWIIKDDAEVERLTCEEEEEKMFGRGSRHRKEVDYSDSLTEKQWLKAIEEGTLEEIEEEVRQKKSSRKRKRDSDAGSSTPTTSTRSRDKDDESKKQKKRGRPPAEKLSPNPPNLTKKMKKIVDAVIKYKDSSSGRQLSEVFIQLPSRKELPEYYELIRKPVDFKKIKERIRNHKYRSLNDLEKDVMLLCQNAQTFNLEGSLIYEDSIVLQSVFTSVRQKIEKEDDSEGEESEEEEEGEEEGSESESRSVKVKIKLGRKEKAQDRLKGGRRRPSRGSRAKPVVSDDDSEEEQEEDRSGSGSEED
Description: as §1, §2
as §1, with “The” for “The ATPase catalytic activity of BRM or BRG-1 was measured by the in vitro biochemical assay using ADP-Glo™ (Promega, V9102). The”
as §2, with “BRG1,” for “BRG-1,”

T1 sequence (P51531 whole entry): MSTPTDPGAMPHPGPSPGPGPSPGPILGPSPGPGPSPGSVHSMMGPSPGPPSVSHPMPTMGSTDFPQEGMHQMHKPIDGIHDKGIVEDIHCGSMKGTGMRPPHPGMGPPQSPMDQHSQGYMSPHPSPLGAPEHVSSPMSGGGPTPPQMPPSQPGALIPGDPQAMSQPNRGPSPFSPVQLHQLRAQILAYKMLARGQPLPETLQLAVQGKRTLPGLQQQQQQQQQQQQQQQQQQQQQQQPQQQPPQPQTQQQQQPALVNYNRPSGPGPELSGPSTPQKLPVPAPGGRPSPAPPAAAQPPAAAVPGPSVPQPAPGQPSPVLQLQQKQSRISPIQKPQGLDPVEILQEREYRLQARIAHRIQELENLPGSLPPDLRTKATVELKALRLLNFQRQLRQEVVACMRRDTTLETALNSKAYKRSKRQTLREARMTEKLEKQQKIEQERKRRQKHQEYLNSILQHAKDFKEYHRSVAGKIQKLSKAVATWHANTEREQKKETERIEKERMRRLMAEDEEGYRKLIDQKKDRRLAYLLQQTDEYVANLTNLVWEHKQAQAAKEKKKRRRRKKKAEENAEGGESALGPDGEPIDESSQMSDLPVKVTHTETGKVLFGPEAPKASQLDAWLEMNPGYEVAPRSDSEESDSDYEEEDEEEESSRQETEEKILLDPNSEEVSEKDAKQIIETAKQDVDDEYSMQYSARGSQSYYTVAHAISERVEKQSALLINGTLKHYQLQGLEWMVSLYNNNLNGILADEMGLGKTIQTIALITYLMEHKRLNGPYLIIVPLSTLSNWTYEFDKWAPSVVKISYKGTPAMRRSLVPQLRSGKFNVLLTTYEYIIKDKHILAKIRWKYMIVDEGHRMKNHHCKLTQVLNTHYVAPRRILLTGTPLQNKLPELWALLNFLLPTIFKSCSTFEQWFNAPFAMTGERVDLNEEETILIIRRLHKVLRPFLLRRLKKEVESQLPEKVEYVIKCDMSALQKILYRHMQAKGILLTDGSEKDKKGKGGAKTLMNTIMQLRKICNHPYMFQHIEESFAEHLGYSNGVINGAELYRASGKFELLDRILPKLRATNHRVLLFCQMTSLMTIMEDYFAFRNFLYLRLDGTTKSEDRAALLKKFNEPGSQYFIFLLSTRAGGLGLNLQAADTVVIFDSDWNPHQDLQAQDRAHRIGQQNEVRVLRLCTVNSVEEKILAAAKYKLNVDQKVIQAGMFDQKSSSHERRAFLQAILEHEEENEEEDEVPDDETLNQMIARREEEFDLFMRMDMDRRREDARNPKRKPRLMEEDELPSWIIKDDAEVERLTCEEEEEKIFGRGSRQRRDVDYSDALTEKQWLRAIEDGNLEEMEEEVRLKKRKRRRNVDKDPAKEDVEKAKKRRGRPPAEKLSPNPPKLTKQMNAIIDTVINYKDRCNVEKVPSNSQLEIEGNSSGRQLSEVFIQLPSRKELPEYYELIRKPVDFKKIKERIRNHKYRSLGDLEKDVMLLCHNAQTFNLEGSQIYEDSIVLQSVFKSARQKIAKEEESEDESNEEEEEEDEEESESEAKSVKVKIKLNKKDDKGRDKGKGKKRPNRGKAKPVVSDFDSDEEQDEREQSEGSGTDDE

| Structure (SMILES) | BRM Max % Inhibition (BRM) [%] | IC50 (BRM) [µM] | IC50 (BRG-1) [µM] | Emax (BRG-1) [%] |
| --- | --- | --- | --- | --- |
| Cc1cc(-c2cccc(-c3csc(NC(=O)CNC(=O)c4cc(CO)n(S(=O)(=O)C(C)C)c4)n3)c2)cc(C)n1 [Compound 25, N-(2-((4-(3-(2,6-dimethylpyridin-4-yl)phenyl)thiazol-2-yl)amino)-2-oxoethyl)-5-(hydroxymethyl)-1-(isopropylsulfonyl)-1H-pyrrole-3-carboxamide] | >95 | < 0.1 | 0.1 to 1 | > 80 |
| CC(C)S(=O)(=O)n1cc(C(=O)NCC(=O)Nc2nc(-c3cc(F)cc(N4C[C@@H](C)O[C@@H](C)C4)c3)cs2)c2ccccc21 [Compound 21, N-(2-((4-(3-((cis)-2,6-dimethylmorpholino)-5-fluorophenyl)thiazol-2-yl)amino)-2-oxoethyl)-1-(isopropylsulfonyl)-1H-indole-3-carboxamide] | >90 | 0.1 to 1 | > 5 | < 30 |
| CC(C)S(=O)(=O)n1cc(C(=O)NCC(=O)Nc2nc(-c3cccc(-c4ccncc4)c3)cs2)c(Cl)c1Cl [Compound 30, 4,5-dichloro-1-isopropylsulfonyl-N-[2-oxo-2-[[4-[3-(4-pyridyl)phenyl]thiazol-2-yl]amino]ethyl]pyrrole-3-carboxamide] | >50 | < 0.1 | > 5 | < 30 |
| CS(=O)(=O)n1cc(C(=O)NCC(=O)Nc2nc(-c3cccc(-c4ccncc4)c3)cs2)c2c1CCCC2 [Compound 5, 1-(methylsulfonyl)-N-(2-oxo-2-((4-(3-(pyridin-4-yl)phenyl)thiazol-2-yl)amino)ethyl)-4,5,6,7-tetrahydro-1 H-indole-3-carboxamide] | >60 | < 0.1 | > 5 | < 30 |
| CC(C)S(=O)(=O)n1cc(C(=O)NCC(=O)Nc2nc(-c3cccc(N4C[C@@H](C)O[C@@H](C)C4)c3)cs2)cc1Cl [Compound 36] | >90 | 0.1 to 1 | 1 to 5 | > 60 |
| Cc1cc(-c2cccc(-c3csc(NC(=O)CNC(=O)c4cc(Cl)n(S(=O)(=O)C(C)C)c4)n3)c2)nc(C)n1 [Compound 32, 5-chloro-N-(2-((4-(3-(2,6-dimethylpyrimidin-4-yl)phenyl)thiazol-2-yl)amino)-2-oxoethyl)-1-(isopropylsulfonyl)-1H-pyrrole-3-carboxamide] | >95 | < 0.1 | 0.1 to 1 | > 90 |
| CC(C)S(=O)(=O)n1cc(C(=O)NCC(=O)Nc2nc(-c3cccc(-c4ccncc4)c3)cs2)c2ccccc21 [Compound 4, 1-(isopropylsulfonyl)-N-(2-oxo-2-((4-(3-(pyridin-4-yl)phenyl)thiazol-2-yl)amino)ethyl)-1H-indole-3-carboxamide] | >60 | 0.1 to 1 | > 5 | – |
| Cc1c(C(=O)NCC(=O)Nc2nc(-c3cccc(-c4ccncc4)c3)cs2)cn(S(=O)(=O)C(C)C)c1C [Compound 10, 1-(isopropylsulfonyl)-4,5-dimethyl-N-(2-oxo-2-((4-(3-(pyridin-4-yl)phenyl)thiazol-2-yl)amino)ethyl)-1H-pyrrole-3-carboxamide] | >70 | 0.1 to 1 | > 5 | < 30 |
| Cc1cc(-c2cccc(-c3csc(NC(=O)CNC(=O)c4cn(S(C)(=O)=O)c5ccccc45)n3)c2)cc(C)n1 [Compound 33, N-(2-((4-(3-(2,6-dimethylpyridin-4-yl)phenyl)thiazol-2-yl)amino)-2-oxoethyl)-1-(methylsulfonyl)-1H-indole-3-carboxamide] | >95 | < 0.1 | 0.1 to 1 | > 90 |
